Activity calls are given as the source filed them.
Tests used:
[1] = molecular target: Neuropeptide Y receptor type 1 (Homo sapiens, UniProt P25929); assay type: functional;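 also: HEK293 cells with a CNG channel challenged with NPY then isoproterenol; potency as antagonist that reverses NPY suppression of cAMP signal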
[2] = molecular target: Neuropeptide Y receptor type 2 (Homo sapiens, UniProt P49146); assay type: functional, cell-based;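 also: HEK293 cells expressing the receptor and a CNG channel; stimulus was NPY near EC95 followed by isoproterenol to raise cAMP; antagonist potency measured as restoring cAMP signal that NPY suppresses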
[3] = system: H4; assay: Luminescence Cell-Based Dose Response HTS to Identify Activators of 5'UTR Stem-Loop Driven Prion Protein mRNA Translation in H4 Neuroglioblastoma Cells. [Related pubchem assays: 1829 (Project Summary), 1814 (Primary HTS)]; assay type: functional; settings: Homo sapiens
[4] = molecular target: Epstein-Barr nuclear antigen 1 (Epstein-Barr virus (strain B95-8) (HHV-4) (Human herpesvirus 4), UniProt P03211); assay: EBNA-1 inhibitors, dose response, biochemical, fluorescence polarization, 1536-well (AID 2381); parameters: species or system human gammaherpesvirus 4;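 also: fluorescence polarization of a Cy5 DNA probe bound by EBNA-1 protein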
[5] = Luminescence Cell-Based Dose Response to Identify Activators of Luciferase Translation or Activity in H4-C Neuroglioblastoma Cells. [Related pubchem assays: 1829 (Project Summary), 1814 (Primary HTS)]; assay type: functional
[6] = Luminescence Cell-Based Dose Confirmation to Identify Activators of 5'UTR Stem-Loop Driven Alpha-Synuclein mRNA Translation in H4 Neuroglioblastoma Cells. [Related pubchem assays: 1829 (Project Summary), 1814 (Primary HTS)]; assay type: functional
[7] = Luminescence Cell-Based Dose Response to Identify Activators of 5'UTR Stem-Loop Driven Prion Protein mRNA Translation in H4-C Neuroglioblastoma Cells. [Related pubchem assays: 1829 (Project Summary), 1814 (Primary HTS)]; assay type: functional
[8] = molecular target: Lytic switch protein BZLF1 (Epstein-Barr virus (strain B95-8) (HHV-4) (Human herpesvirus 4), UniProt P03206); assay: EBV ZTA inhibitors, dose response, counter-screen for EBNA-1 inhibitor project, biochemical, fluorescence polarization, Epstein-Barr virus, 1536-well (AID 2377); parameters: species or system human gammaherpesvirus 4;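 also: fluorescence polarization of Cy5-labelled ZRE DNA probe bound by purified Zta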
[9] = cytotoxicity in MIN6 insulinoma cells, dose response, cytotoxicity control, cell-based, mouse insulinoma (AID 2122); assay type: functional;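 also: confirmatory high-throughput counterscreen run to flag cytotoxic compounds; mouse MIN-6 beta cells carrying an insulin promoter eGFP reporter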
[10] = molecular target: Induced myeloid leukemia cell differentiation protein Mcl-1 (Homo sapiens, UniProt Q07820); assay type: functional
[11] = Counterscreen for AddAB inhibitors: absorbance-based bacterial cell-based high throughput dose response assay for inhibitors of bacterial viability. [Related pubchem assays (depositor defined):AID435030, AID449728, AID449731, AID488942, AID488955, AID488956]; assay type: functional
[12] = system: Streptococcus sp. 'group A'; assay: growth inhibition of control SK(-) GAS strain, dose response, counter-screen for streptokinase expression inhibitor project, luminescence, kanamycin, BacTiterGlo, confirmation (AID 1900); assay type: functional, organism-based
[13] = Luminescence Cell-Based Dose Response HTS to Identify Inhibitors of 5'UTR Stem-Loop Driven Prion Protein mRNA Translation in H4 Neuroglioblastoma Cells. [Related pubchem assays: 1827 (Project Summary), 1813 (Primary HTS)]; assay type: functional
[14] = system: INS1; assay: beta cell apoptosis inhibitors, cytokine rescue, dose response, luminescence, retest (AID 449756); assay type: functional, cell-based; settings: Rattus norvegicus;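 also: cell death triggered by IL-1 beta plus TNF-alpha plus IFN-gamma mixture; protective hits raise ATP signal compared with cytokine alone wells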
[15] = inhibitors of SNCA 5'UTR-driven reporter translation, confirmation, H4 neuroglioma cells, luminescence (AID 1988); assay type: functional, cell-based
[16] = system: Streptococcus; assay: Group A Streptococcus viability loss, dose response, counter-screen for streptokinase expression inhibitor project, luminescence, BacTiterGlo (AID 1915); assay type: functional, organism-based;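 also: potency for reduction of bacterial viability or growth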
[17] = system: Vero; assay: host cell cytotoxicity of antiviral hits, dose response, cytotoxicity control for West Nile virus antiviral project, secondary assay (AID 1650); assay type: functional; settings: Chlorocebus sabaeus
[18] = inhibitors of firefly luciferase expression or activity, dose response, H4 neuroglioma cells, luminescence (AID 1990); assay type: functional, cell-based
[19] = molecular target: T1, Exodeoxyribonuclease V (Escherichia coli (strain K12), UniProt P04993+P07648+P08394); assay: E. coli RecBCD inhibitors, dose response, counter-screen for AddAB inhibitor project, absorbance, V66 E. coli, mutant T4 phage (AID 492957); assay type: functional, cell-based, Escherichia coli str. K-12 substr. MG1655
T1 sequence (P04993 whole entry): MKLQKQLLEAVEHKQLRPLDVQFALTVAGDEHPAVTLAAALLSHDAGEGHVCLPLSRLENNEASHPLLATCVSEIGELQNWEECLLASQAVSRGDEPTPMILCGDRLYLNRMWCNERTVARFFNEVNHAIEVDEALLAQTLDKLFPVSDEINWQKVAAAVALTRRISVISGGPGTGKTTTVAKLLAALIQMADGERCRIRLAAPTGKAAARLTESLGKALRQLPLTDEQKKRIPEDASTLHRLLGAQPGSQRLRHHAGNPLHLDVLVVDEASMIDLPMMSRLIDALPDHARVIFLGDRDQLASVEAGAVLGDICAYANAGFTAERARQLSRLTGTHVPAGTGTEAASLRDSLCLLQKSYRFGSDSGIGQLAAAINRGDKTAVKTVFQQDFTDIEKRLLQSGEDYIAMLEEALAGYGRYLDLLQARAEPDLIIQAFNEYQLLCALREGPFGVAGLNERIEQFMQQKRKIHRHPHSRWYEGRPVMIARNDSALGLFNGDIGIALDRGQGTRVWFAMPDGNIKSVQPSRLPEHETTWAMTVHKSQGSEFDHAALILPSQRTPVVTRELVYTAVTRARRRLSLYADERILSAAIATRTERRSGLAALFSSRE
T1 sequence (P07648 whole entry): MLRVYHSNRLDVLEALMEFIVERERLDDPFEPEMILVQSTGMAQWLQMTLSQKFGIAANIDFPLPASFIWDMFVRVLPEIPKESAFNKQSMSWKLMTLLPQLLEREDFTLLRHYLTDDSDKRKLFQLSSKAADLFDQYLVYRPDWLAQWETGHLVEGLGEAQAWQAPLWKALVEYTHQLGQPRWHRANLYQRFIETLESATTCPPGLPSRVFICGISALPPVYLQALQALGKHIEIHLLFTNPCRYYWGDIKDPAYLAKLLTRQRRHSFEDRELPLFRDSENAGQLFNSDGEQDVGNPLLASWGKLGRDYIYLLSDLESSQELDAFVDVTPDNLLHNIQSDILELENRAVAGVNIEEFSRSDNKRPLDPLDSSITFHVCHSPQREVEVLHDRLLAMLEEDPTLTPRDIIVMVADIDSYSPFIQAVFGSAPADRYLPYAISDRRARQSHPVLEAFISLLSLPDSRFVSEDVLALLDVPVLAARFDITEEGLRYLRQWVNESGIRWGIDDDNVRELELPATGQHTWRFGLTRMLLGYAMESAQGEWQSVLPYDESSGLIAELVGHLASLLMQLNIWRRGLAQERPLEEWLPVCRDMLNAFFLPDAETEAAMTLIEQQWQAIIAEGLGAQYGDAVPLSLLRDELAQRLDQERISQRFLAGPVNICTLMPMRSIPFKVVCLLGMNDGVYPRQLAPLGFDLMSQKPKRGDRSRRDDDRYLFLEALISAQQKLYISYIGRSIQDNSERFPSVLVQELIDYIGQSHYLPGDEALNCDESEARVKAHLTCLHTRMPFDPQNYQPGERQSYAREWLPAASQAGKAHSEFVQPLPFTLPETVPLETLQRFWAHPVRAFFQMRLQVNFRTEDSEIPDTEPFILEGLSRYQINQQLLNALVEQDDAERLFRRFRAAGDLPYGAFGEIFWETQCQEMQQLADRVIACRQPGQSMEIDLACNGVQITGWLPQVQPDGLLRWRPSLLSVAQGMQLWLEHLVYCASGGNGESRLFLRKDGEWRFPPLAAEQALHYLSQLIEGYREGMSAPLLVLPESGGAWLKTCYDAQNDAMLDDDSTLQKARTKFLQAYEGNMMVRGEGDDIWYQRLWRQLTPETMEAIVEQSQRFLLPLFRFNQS
T1 sequence (P08394 whole entry): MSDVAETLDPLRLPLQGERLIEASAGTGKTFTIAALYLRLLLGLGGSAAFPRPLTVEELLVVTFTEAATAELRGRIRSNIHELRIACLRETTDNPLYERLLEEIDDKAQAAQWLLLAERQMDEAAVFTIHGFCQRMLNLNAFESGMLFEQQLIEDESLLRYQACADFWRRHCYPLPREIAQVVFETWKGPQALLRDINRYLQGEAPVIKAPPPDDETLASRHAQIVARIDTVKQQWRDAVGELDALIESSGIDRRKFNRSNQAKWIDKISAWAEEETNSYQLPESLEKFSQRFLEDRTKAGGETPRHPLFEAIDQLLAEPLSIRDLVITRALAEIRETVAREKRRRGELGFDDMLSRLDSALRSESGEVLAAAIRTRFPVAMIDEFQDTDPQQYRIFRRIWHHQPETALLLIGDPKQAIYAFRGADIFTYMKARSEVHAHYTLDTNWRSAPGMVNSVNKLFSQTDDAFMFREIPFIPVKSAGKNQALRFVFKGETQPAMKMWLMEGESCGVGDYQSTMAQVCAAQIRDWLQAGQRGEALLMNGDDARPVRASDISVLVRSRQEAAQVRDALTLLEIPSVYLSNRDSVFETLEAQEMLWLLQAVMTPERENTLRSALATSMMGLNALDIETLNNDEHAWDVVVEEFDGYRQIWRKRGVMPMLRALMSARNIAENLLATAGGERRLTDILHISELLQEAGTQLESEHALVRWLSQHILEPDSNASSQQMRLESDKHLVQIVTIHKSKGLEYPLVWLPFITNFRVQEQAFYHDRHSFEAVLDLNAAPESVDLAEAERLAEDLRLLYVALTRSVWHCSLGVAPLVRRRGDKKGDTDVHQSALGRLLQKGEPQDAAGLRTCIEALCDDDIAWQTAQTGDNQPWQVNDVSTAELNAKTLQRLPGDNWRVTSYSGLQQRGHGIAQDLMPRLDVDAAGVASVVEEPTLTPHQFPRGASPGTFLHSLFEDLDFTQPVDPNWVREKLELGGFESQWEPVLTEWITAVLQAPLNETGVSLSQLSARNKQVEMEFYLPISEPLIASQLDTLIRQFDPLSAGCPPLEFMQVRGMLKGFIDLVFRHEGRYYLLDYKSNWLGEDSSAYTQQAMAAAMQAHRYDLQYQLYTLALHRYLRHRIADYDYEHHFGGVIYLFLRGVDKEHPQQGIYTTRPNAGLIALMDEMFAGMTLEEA

[20] = insulin promoter down-regulators in MIN6 cells, imaging, high-content screening, mouse beta cells (AID 1628); assay type: functional
[21] = NIH-3T3 fibroblast cytotoxicity, dose response, cytotoxicity control, cell-based, fluorescence, Alamar Blue, secondary assay (AID 2327); assay type: functional;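 also: NIH-3T3 mouse fibroblasts cultured with fluconazole at 8 µg/mL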
[22] = molecular target: Estrogen receptor beta (Homo sapiens, UniProt Q92731); assay: ERβ–SRC-3 coactivator interaction inhibitors, confirmation, orthogonal assay, biochemical, ELISA, streptavidin-HRP readout (AID 1060)
[23] = C. albicans growth with fluconazole, confirmation, fluorescence, retest (AID 2467); assay type: functional, cell-based
[24] = A549 cell cytotoxicity, dose response, cytotoxicity control, plate reader, cherry-pick, antagonist series (AID 743412); assay type: functional, cell-based
[25] = Luminescence-based counterscreen assay for KLF5 inhibitors: dose response cell-based high throughput screening assay to identify cytotoxic compounds using the IEC-6 intestinal epithelial cell line. [Related pubchem assays: 1700 (Primary screen.), 1834 (Confirmation screen.), 1858 (Summary AID.), 1905 (Counterscreen.)]; assay type: functional
[26] = HepG2 cell cytotoxicity, dose response, cytotoxicity control, plate reader, cherry-pick, antagonist series (AID 743416); assay type: functional, cell-based
[27] = MC4R antagonists, dose response, counter-screen for LGR2 antagonist project, cell-based, plate reader, cherry pick (AID 743444); assay type: functional;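 also: transfected HEK 293 cells stimulated with alpha-MSH peptide; potency of inhibitors of the alpha-MSH evoked signal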
[28] = LGR2 antagonists, dose response, cell-based, HEK293, CRE-luciferase reporter, cherry pick, set 2 (AID 743343); assay type: functional;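 also: transfected cells were stimulated with diluted bursicon conditioned medium after compound addition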
[29] = molecular target: T2, Streptokinase A (Streptococcus pyogenes serotype M1, UniProt P10520); assay: S. pyogenes streptokinase expression inhibitors, potency, dose response, plasminogen activation absorbance, OD405 (AID 1914); assay type: functional, Streptococcus pyogenes M1 GAS;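 also: secreted streptokinase activity via plasminogen activation per viability signal from cell pellet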
T2 sequence (P10520 whole entry): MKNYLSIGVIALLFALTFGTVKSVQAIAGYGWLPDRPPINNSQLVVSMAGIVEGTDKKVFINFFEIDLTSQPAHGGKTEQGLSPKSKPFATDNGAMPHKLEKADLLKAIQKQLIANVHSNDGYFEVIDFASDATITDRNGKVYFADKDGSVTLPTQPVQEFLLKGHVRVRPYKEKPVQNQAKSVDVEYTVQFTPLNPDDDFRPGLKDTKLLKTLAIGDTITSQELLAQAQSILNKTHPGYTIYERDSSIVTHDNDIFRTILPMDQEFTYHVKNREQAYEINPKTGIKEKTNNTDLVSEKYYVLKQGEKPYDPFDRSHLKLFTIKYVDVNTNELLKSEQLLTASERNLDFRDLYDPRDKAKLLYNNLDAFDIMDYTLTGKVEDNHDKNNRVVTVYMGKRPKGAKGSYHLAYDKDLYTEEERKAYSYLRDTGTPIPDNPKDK

[30] = HEK293 cell cytotoxicity, dose response, cytotoxicity control, plate reader, cherry-picked samples (AID 743446); assay type: functional, cell-based

Lytic switch protein BZLF1, sequence (P03206 whole entry): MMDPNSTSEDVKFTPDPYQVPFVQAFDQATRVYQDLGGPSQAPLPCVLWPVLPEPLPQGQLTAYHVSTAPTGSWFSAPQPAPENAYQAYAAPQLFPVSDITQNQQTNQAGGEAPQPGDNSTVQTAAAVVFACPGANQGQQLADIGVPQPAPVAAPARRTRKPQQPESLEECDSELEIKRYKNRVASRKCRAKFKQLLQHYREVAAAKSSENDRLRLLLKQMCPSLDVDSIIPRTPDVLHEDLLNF
Epstein-Barr nuclear antigen 1, sequence (P03211 whole entry): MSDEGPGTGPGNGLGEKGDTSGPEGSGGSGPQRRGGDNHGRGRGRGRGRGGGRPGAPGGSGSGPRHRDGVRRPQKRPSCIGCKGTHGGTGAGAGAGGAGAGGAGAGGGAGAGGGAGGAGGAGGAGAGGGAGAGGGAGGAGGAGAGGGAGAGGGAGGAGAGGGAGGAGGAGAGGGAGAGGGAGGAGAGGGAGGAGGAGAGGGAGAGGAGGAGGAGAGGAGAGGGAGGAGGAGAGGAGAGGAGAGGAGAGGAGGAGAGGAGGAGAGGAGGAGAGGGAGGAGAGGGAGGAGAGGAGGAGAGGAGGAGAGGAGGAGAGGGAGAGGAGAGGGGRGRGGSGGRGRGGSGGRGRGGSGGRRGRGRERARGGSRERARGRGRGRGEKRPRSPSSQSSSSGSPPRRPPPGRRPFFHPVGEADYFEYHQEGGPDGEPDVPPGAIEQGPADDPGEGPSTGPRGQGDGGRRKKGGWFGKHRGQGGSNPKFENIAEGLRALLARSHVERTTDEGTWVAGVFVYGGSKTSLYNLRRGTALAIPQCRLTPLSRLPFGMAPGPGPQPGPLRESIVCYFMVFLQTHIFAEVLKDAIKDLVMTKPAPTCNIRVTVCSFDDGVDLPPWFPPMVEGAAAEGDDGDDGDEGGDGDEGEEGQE
Estrogen receptor beta, sequence (Q92731 whole entry): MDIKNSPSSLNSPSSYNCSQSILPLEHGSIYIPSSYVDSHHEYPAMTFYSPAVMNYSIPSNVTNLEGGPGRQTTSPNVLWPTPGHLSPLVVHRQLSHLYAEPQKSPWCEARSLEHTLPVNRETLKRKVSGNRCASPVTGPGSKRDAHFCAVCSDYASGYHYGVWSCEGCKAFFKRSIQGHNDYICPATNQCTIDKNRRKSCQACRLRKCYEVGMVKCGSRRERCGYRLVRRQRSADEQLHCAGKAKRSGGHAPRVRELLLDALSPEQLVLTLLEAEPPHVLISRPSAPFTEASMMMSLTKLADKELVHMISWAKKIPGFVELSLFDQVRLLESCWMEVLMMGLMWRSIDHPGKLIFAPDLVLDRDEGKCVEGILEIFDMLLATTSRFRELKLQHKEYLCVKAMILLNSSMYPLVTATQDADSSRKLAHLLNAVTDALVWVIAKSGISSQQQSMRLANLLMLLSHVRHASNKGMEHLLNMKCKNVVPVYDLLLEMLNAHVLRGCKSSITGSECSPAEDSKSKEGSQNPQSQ
Neuropeptide Y receptor type 1, sequence (P25929 whole entry): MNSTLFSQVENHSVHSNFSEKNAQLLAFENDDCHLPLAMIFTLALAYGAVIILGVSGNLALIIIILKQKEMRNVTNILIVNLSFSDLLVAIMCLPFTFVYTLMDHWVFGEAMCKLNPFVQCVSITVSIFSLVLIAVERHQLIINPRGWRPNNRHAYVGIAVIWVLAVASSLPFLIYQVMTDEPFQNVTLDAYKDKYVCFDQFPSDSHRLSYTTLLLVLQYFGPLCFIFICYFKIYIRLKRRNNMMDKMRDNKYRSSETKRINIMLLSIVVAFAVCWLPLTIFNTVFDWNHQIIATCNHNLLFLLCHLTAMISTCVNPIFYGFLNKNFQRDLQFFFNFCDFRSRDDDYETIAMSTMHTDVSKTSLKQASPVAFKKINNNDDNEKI
Induced myeloid leukemia cell differentiation protein Mcl-1, sequence (Q07820 whole entry): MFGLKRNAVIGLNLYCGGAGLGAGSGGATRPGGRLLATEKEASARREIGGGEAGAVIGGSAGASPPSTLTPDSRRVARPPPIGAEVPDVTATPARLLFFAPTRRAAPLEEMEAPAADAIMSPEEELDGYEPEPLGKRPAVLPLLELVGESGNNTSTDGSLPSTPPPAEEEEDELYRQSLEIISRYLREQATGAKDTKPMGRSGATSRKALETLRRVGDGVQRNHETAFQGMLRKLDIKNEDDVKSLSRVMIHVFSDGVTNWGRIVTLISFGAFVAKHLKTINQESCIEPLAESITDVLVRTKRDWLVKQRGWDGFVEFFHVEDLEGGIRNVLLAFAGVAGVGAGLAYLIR
Neuropeptide Y receptor type 2, sequence (P49146 whole entry): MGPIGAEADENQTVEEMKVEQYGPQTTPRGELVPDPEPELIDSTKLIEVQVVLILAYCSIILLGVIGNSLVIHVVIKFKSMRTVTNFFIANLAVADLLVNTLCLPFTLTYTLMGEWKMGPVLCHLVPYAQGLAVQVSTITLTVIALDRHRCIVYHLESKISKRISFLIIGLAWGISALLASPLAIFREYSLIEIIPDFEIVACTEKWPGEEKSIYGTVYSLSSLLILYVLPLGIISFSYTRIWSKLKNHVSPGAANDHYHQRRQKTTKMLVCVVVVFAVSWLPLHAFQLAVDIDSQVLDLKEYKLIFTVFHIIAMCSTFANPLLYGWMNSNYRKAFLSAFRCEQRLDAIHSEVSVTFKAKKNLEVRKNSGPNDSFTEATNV

COc1ccc(-c2noc(COc3ccc(Cl)c(C)c3)n2)cc1
active: IC50 [1] 5.14 µM | IC50 [2] 4.25 µM

Cc1cc(C(=O)CSc2nnnn2-c2ccccc2)c(C)n1CC1CCCO1 (configuration not stated)
active: EC50 [3] < 0.1 µM | IC50 [4] 5.23 µM | EC50 [5] 0.353 µM | EC50 [6] 0.338 µM | EC50 [7] 0.326 µM
> 111 µM (not active): IC50 [8]

Cc1ccc(C(C)C)c(OCc2ccc(C(=O)N/N=C/c3ccc(O)cc3O)cc2)c1
inactive: IC50 [11] > 119 µM | IC50 [19] > 119 µM
active: IC50 [9] 1.04 µM | IC50 [10] 4.97 µM | EC50 [12] 1.3 µM | EC50 [13] 8.36 µM | AC50 [14] 1.24 µM | EC50 [15] 2.17 µM | EC50 [16] 2.15 µM | CC50 [17] 6.86 µM | EC50 [18] 3 µM | IC50 [20] 1.03 µM

CN1CCN(C(c2cccnc2)c2ccc3cccnc3c2O)CC1 (configuration not stated)
inactive: EC50 [21] > 160 µM
32.6 µM (not active): IC50 [22]
> 38 µM (not active): EC50 [23]

O=C(Nc1nc2cc3c(cc2s1)OCCO3)c1ccco1
> 150 µM (not active): EC50 [29]
active: AC50 [24] 12.9 µM | IC50 [25] 7.91 µM | AC50 [26] 28.5 µM | AC50 [27] 1.07 µM | EC50 [12] 19.5 µM | AC50 [28] 1.12 µM | EC50 [16] 53.5 µM | AC50 [30] 45.4 µM
